Assay results reported in the OPERA property sets (Mansouri et al. 2018).

details: not given

In order of falling boiling point:
1. CCCCCCCCCCCCCCCCCCCCCC1CCCC1  420 °C
2. c1ccc2c(c1)[nH]c1ccccc12  355 °C
3. Cc1ccccc1NCc1ccccc1  302 °C
4. CCCCC(CC)COC(=O)/C=C/C(=O)OCC(CC)CCCC (stereo unspecified)  300 °C
5. CCn1c(C)nc2ccccc21  296 °C
6. O=[N+]([O-])c1ccc(I)cc1  288 °C
7. Cc1cc(C)cc(-c2ccccc2)c1  274 °C
8. CCCCC(CC)COCC(CC)CCCC (stereo unspecified)  269 °C
9. CCN(C(C)=O)c1ccccc1  260 °C
10. CC(=O)CCC(=O)O  246 °C
11. CC(=O)c1cccc(Cl)c1  244 °C
12. Oc1ccc(Br)cc1Cl  234 °C
13. CC(=O)OCCc1ccccc1  233 °C
14. CCOc1ccccc1N  232 °C
15. Cc1cc(C)cc(O)c1  222 °C
16. NCCOCCO  221 °C
17. CC(=O)c1cccs1  214 °C
18. CCOC(=O)c1ccc(F)cc1  210 °C
19. CCCCCCCCC(C)=O  210 °C
20. COC(=O)C(Br)CBr (stereo unspecified)  206 °C
21. CCc1cc(C)cc(CC)c1  205 °C
22. C[C@H](O)CCCO  202 °C
23. ClC(Cl)(Br)CBr  195 °C
24. N#CCI  185 °C
25. CCC(C)(CC)C(C)(C)C  170 °C
26. FC(F)(F)c1ccccc1Br  168 °C
27. CC1CC(C)(C)CC1=O (stereo unspecified)  160 °C
28. ClCC(Cl)CCl  157 °C
29. CC(C)C(C)(O)C(C)C  156 °C
30. CCCCCC(=O)Cl  153 °C
31. CCC(C)CCBr (stereo unspecified)  148 °C
32. ClC(Cl)=C(Cl)Cl  121 °C
33. C#CC(=O)OCC  120 °C
34. FC(F)(F)C(F)(F)C(F)(F)C(F)(F)C(F)(F)C(F)(F)C(F)(F)Br  118 °C
35. CCOC(C)(C)OCC  114 °C
36. CC(Cl)CCl (stereo unspecified)  95.5 °C
37. CC(C)I  89.5 °C
38. C=C(C)COC  68 °C
39. C/C=C/CCC  66.5 °C
40. C=CCOC  44 °C
41. CCCCF  32.5 °C
42. C=C(Cl)Cl  31.6 °C
43. FC(Cl)C(F)(F)Cl (stereo unspecified)  29.5 °C
44. FC(F)(F)C(Cl)C(F)(F)F  14.1 °C
45. CCOC  7.4 °C

In order of falling log10 vapour pressure (mmHg):
1. CCOC  3.17
2. FC(Cl)C(F)(F)Cl (stereo unspecified)  2.79
3. C=C(Cl)Cl  2.78
4. CCCCF  2.76
5. CC(Cl)CCl (stereo unspecified)  1.73
6. CC(C)I  1.63
7. ClC(Cl)=C(Cl)Cl  1.27
8. ClCC(Cl)CCl  0.567
9. CCc1cc(C)cc(CC)c1  0.0017
10. ClC(Cl)(Br)CBr  -0.0458
11. CCCCCCCCC(C)=O  -0.571
12. Cc1cc(C)cc(O)c1  -1.39
13. CC(=O)OCCc1ccccc1  -1.5
14. CCSC(=O)N1CCCCCC1  -2.25
15. CC(C)(OO)c1ccccc1  -2.49
16. NCCOCCO  -2.81
17. CC(=O)CCC(=O)O  -2.95
18. CCN(C(=O)SCc1ccccc1)C(C)C(C)C (stereo unspecified)  -5.12
19. Cc1nc(N(C)C)nc(OC(=O)N(C)C)c1C  -5.14
20. c1ccc2c(c1)[nH]c1ccccc12  -6.12
21. CON=C(C)c1cccc(Oc2nc(OC)cc(OC)n2)c1C(=O)OC  -6.64
22. O=C1C2(Cl)C3(Cl)C4(Cl)C(Cl)(Cl)C5(Cl)C3(Cl)C1(Cl)C5(Cl)C24Cl (stereo unspecified)  -6.65
23. Cc1ccc2nc3sc(=O)sc3nc2c1  -6.7
24. COP(=O)(OC)OC(=CCl)c1cc(Cl)c(Cl)cc1Cl  -7.38
25. Clc1cc2c(oc3c(Cl)c(Cl)c(Cl)c(Cl)c32)c(Cl)c1Cl  -10.5
26. CCN(Cc1ccc(Cl)nc1)/C(=C/[N+](=O)[O-])NC  -11.1
27. Brc1c(Br)c(Br)c2c(c1Br)Oc1c(Br)c(Br)c(Br)c(Br)c1O2  -12.5

In order of rising melting point:
1. CCCCF  -134 °C
2. C=C(Cl)Cl  -122 °C
3. FC(F)(F)C(Cl)C(F)(F)F  -120 °C
4. CCOC  -113 °C
5. CC(Cl)CCl (stereo unspecified)  -100 °C
6. C/C=C/CCC  -98 °C
7. CC(C)I  -90 °C
8. CCCCCC(=O)Cl  -87 °C
9. FC(Cl)C(F)(F)Cl (stereo unspecified)  -78 °C
10. CCc1cc(C)cc(CC)c1  -74.1 °C
11. CCC(C)(CC)C(C)(C)C  -42.5 °C
12. CC(=O)OCCc1ccccc1  -31.1 °C
13. ClC(Cl)(Br)CBr  -26 °C
14. CC1CC(C)(C)CC1=O (stereo unspecified)  -25.6 °C
15. ClC(Cl)=C(Cl)Cl  -22.3 °C
16. ClCC(Cl)CCl  -14.7 °C
17. CCCCC(CC)COC(=O)/C=C/C(=O)OCC(CC)CCCC (stereo unspecified)  -10 °C
18. CC(C)(OO)c1ccccc1  -9 °C
19. CC(=O)c1cccs1  10.5 °C
20. CCCCCCCCC(C)=O  14 °C
21. Cc1cc(C)cc(-c2ccccc2)c1  22.5 °C
22. O=C(S)c1ccccc1  24 °C
23. CCOC(=O)c1ccc(F)cc1  26 °C
24. CC(=O)CCC(=O)O  33 °C
25. CCCCCCCCCCCCCCCCCCCCCC1CCCC1  42 °C
26. O=C(O)Cc1cccc(F)c1  43 °C
27. Oc1ccc(Br)cc1Cl  50.5 °C
28. CCn1c(C)nc2ccccc21  51 °C
29. CCN(C(C)=O)c1ccccc1  55 °C
30. Cc1ccc(N=C=Nc2ccc(C)cc2)cc1  58.5 °C
31. Cc1ccccc1NCc1ccccc1  60 °C
32. CC(C)=CCN=C(N)N  62.5 °C
33. Cc1cc(C)cc(O)c1  63.6 °C
34. N#CCC(=O)O  66 °C
35. c1ccc2c(c1)ccc1ccc3ccccc3c12  68 °C
36. O=[N+]([O-])c1ccccc1/C=C/c1ccccc1  73 °C
37. COc1ccc2c(c1)CCCC2=O  78 °C
38. CCOc1ccccc1NC(C)=O  79 °C
39. O=C(O)/C=C/CCl  83 °C
40. COc1cc(C=CC=O)ccc1O  84 °C
41. Cc1nc(N(C)C)nc(OC(=O)N(C)C)c1C  90.5 °C
42. CCC1=C(C[C@@H]2NCCc3cc(OC)c(OC)cc32)C[C@H]2c3cc(OC)c(OC)cc3CCN2C1  95 °C
43. COP(=O)(OC)OC(=CCl)c1cc(Cl)c(Cl)cc1Cl  96.3 °C
44. CCCCCCCCC(N)=O  99.5 °C
45. CON=C(C)c1cccc(Oc2nc(OC)cc(OC)n2)c1C(=O)OC  107 °C
46. N#Cc1cnc2ccccc2c1  109 °C
47. CS(=O)(=O)OCCCNCCCOS(C)(=O)=O  116 °C
48. CC(Oc1ccc(Oc2ccc(Cl)cc2Cl)cc1)C(=O)O (stereo unspecified)  120 °C
49. Clc1cc(Cl)c2nsnc2c1Cl  122 °C
50. CN1CCN(C2=Nc3ccccc3Cc3ccccc32)CC1  137 °C
51. CCOCCN(Cc1ccc(CN(CCOCC)C(=O)C(Cl)Cl)cc1)C(=O)C(Cl)Cl  140 °C
52. O=C(O)c1ccc2ccccc2n1  156 °C
53. N#Cc1ccc(Cl)cc1N  161 °C
54. NS(=O)(=O)c1ccc(SCCCO)c([N+](=O)[O-])c1  163 °C
55. O=C(O)Cc1c[nH]c2ccccc12  168 °C
56. Cc1ccc(O)cn1  169 °C
57. CCN1CCN(C(=O)N[C@@H](C(=O)N[C@@H]2C(=O)N3C(C(=O)O)=C(CSc4nnnn4C)CS[C@H]23)c2ccc(O)cc2)C(=O)C1=O  169 °C
58. Cc1ccc2nc3sc(=O)sc3nc2c1  170 °C
59. NNc1nncc2ccccc12  172 °C
60. O=[N+]([O-])c1ccc(I)cc1  175 °C
61. CC(Oc1cc(Cl)c(Cl)cc1Cl)C(=O)O (stereo unspecified)  182 °C
62. CCC1(C(C)C)C(=O)NC(=O)NC1=O  203 °C
63. Cc1cc(O)c2c(O)c3c(O)cccc3cc2c1  204 °C
64. O=C1c2ccccc2-c2ccc(O)cc21  205 °C
65. COc1cnc(NS(=O)(=O)c2ccc(N)cc2)nc1  215 °C
66. C[C@H]1CC[C@@H]2[C@@H](C)[C@H]3[C@H](C[C@H]4[C@@H]5CC=C6C[C@@H](O)CC[C@]6(C)[C@H]5CC[C@]34C)N2C1  218 °C
67. OC[C@H]1O[C@@H](n2cnc3c2N=CNC[C@H]3O)C[C@@H]1O  220 °C
68. C[C@]12CC[C@H](O)C[C@H]1CC[C@@H]1[C@@H]2C[C@@H](O)[C@]2(C)[C@@H](C3=CC(=O)OC3)CC[C@]12O  222 °C
69. N#Cc1cc[n+]([O-])cc1  224 °C
70. Clc1cc2c(oc3c(Cl)c(Cl)c(Cl)c(Cl)c32)c(Cl)c1Cl  233 °C
71. CN(Cc1cc(Br)cc(Br)c1N)C1CCCCC1  238 °C
72. O=C(O)c1cccc2c(Cl)cccc12  245 °C
73. c1ccc2c(c1)[nH]c1ccccc12  246 °C
74. Cl.Cl.NCCc1c[nH]cn1  250 °C
75. CC(=O)OC1CCC2(C)C(CCC3(C)C2C(=O)C=C2C4CC(C)(C(=O)O)CCC4(C)CCC23C)C1(C)C (stereo unspecified)  323 °C
76. Brc1c(Br)c(Br)c2c(c1Br)Oc1c(Br)c(Br)c(Br)c(Br)c1O2  376 °C

In order of rising log10 Henry constant (atm·m³/mol):
1. c1ccc2c(c1)[nH]c1ccccc12  -6.94
2. Cc1cc(C)cc(O)c1  -6.21
3. CCSC(=O)N1CCCCCC1  -5.39
4. ClCC(Cl)CCl  -3.46
5. CC(Cl)CCl (stereo unspecified)  -2.55
6. ClC(Cl)=C(Cl)Cl  -1.75
7. C=C(Cl)Cl  -1.58

In order of rising log10 Koa:
1. CC(Cl)CCl (stereo unspecified)  2.96
2. ClC(Cl)=C(Cl)Cl  3.48
3. Clc1cc2c(oc3c(Cl)c(Cl)c(Cl)c(Cl)c32)c(Cl)c1Cl  11.2

In order of falling log10 Koc (L/kg):
1. O=C1C2(Cl)C3(Cl)C4(Cl)C(Cl)(Cl)C5(Cl)C3(Cl)C1(Cl)C5(Cl)C24Cl (stereo unspecified)  4.2
2. c1ccc2c(c1)[nH]c1ccccc12  3.4
3. Cc1ccc2nc3sc(=O)sc3nc2c1  3.36
4. COP(=O)(OC)OC(=CCl)c1cc(Cl)c(Cl)cc1Cl  3.01
5. Cc1cc(C)cc(O)c1  2.83
6. ClC(Cl)=C(Cl)Cl  2.4
7. CCSC(=O)N1CCCCCC1  1.92
8. Cc1nc(N(C)C)nc(OC(=O)N(C)C)c1C  1.9
9. CC(=O)OCCc1ccccc1  1.89
10. C=C(Cl)Cl  1.81
11. CC(Oc1cc(Cl)c(Cl)cc1Cl)C(=O)O (stereo unspecified)  1.75
12. CC(Cl)CCl (stereo unspecified)  1.67

For `ClC(Cl)=C(Cl)Cl`, the ready biodegradability was “not readily biodegradable”.
In the case of `CC(Cl)CCl` (stereo unspecified), the ready biodegradability was “not readily biodegradable”.
For `CCCCCCCCCCCCCCCCCCC#N`, the ready biodegradability was “readily biodegradable”.
For `N#CCC(=O)O`, the ready biodegradability was “readily biodegradable”.
With `O=C(O)c1ccc2ccccc2n1` the ready biodegradability was “readily biodegradable”.
In the case of `CC(Oc1cc(Cl)c(Cl)cc1Cl)C(=O)O` (stereo unspecified), the ready biodegradability was “not readily biodegradable”.
With `CCCCCCCCC(C)=O` the ready biodegradability was “readily biodegradable”.
For `c1ccc2c(c1)[nH]c1ccccc12`, the ready biodegradability was “not readily biodegradable”.
With `CCCC(O)CC` (stereo unspecified) the ready biodegradability was “not readily biodegradable”.
With `CC(C)(OO)c1ccccc1` the ready biodegradability was “not readily biodegradable”.
In the case of `COP(=O)(OC)OC(=CCl)c1cc(Cl)c(Cl)cc1Cl`, the ready biodegradability was “not readily biodegradable”.
In the case of `C=C(Cl)Cl`, the ready biodegradability was “not readily biodegradable”.
For `ClCC(Cl)CCl`, the ready biodegradability was “not readily biodegradable”.

same assay, conditions: fish

In order of rising log10 BCF:
1. Nc1cc(S(=O)(=O)O)cc2cc(S(=O)(=O)[O][Na])cc(O)c12  0.46
2. CC(Cl)CCl (stereo unspecified)  0.85
3. C=C(Cl)Cl  1.11
4. ClCC(Cl)CCl  1.11
5. CCSC(=O)N1CCCCCC1  1.41
6. COP(=O)(OC)OC(=CCl)c1cc(Cl)c(Cl)cc1Cl  1.61
7. ClC(Cl)=C(Cl)Cl  1.72
8. c1ccc2c(c1)[nH]c1ccccc12  2.23
9. O=C1C2(Cl)C3(Cl)C4(Cl)C(Cl)(Cl)C5(Cl)C3(Cl)C1(Cl)C5(Cl)C24Cl (stereo unspecified)  3.19
10. Clc1cc2c(oc3c(Cl)c(Cl)c(Cl)c(Cl)c32)c(Cl)c1Cl  3.45

In order of falling log10 biotransformation half-life (days):
1. Clc1cc2c(oc3c(Cl)c(Cl)c(Cl)c(Cl)c32)c(Cl)c1Cl  0.9
2. c1ccc2c(c1)[nH]c1ccccc12  0.06
3. ClCC(Cl)CCl  -0.53
4. C=C(Cl)Cl  -0.72
5. ClC(Cl)=C(Cl)Cl  -0.88
6. COP(=O)(OC)OC(=CCl)c1cc(Cl)c(Cl)cc1Cl  -1.02
7. CC(Cl)CCl (stereo unspecified)  -1.06
8. CCSC(=O)N1CCCCCC1  -1.08
